“Also recorded” adds a separate entry of the source. Where no end group is shown, it is not given here. [ ]: non-standard residue; d: D form. The star is where a group is joined. Palmitoyl = CCCCCCCCCCCCCCCC(=O)*
How the values were obtained:
NADPH = NADPH assay in lung homogenates; assay type: in vivo, C57BL/6 mice; details: 100 μg/dose, vs untreated infected mice
Experimental: (§1) The quantification of end effector molecules and enzymes involved in the host antimicrobial activity in the lungs of mice were performed using lung homogenates obtained as indicated above. Lung homogenate supernatants were used in a Griess reaction (G 7921, Molecular probes, Invitrogen, Eugene, Oreg.), Arginase assay (Bioassay Systems, DARG-200), NADPH (Bioassay Systems, ECNP-100), and lysozyme (Molecular Probes E-22013).
For the NADPH assay, each lung homogenate was mixed in a 1.5 mL Eppendorf tube with 100 μL NADPH extraction buffer for NADPH determination. Extracts then were heated at 60° C. for 5 min and then 20 μl assay buffer and 100 μl of the opposite extraction buffer were added to neutralize the extracts. Samples were briefly vortexed and centrifuged at 13,000 rpm for 5 min. The resulting supernatant was used for NADPH assays. 40 μl of standards were then transferred into wells of a clear bottom 96-well plate. For each well of the reaction, 80 μL working reagent were added per well quickly. Optical density for time “zero” (OD0) optical density after 30 min incubation (OD30) at room temperature were read at 565 nm (520-600 nm).

nos2 [1] = experiment: RT-PCR of nos2 transcript in lungs; assay type: in vivo, C57BL/6 mice; details: for mRNA nos2 expression (in words): mouse, in vivo
beclin-1 = experiment: qRT-PCR of beclin-1 transcript in lungs; assay type: in vivo, C57BL/6 mice; details: 100 μg/dose
Experimental: (§2) The upper right lobe of the lungs from each mouse were homogenized in Trizol (Invitrogen) using Next Advance bullet blender (Averill Park, N.Y.) and frozen at −80° C. immediately. RNA was extracted following the manufacturer's protocol. Trizol DNA was digested with RQ1 RNase-free DNase (Promega, Madison, Wis.) and RNA was re-isolated using Trizol. Finally, the concentration of RNA in each sample was measured by spectrophotometry and the RNA was reverse transcribed with M-Mulv (New England Bio Labs, Ipswich, Mass.) and random hexamers (Roche, Basel, Switzerland).
(§3) When lung homogenates from each mouse were used to determine the levels of expression of Bcl-2 and Atg-5 protein using ELISA, the results were similar to those obtained by qRT-PCR.

[2] = test system: Mycobacterium tuberculosis (Erdman strain); details: in vivo
IFNγ = experiment: Cytometric bead array for IFNγ in lung homogenates; assay type: in vivo, C57BL/6 mice; details: CBA, 100 μg/dose, vs control mice
arg1 [3] = experiment: RT-PCR of arg1 transcript in lungs; assay type: in vivo, C57BL/6 mice; details: for mRNA arg1 expression (in words): mouse, in vivo
lysozyme = experiment: Lysozyme assay in lung homogenates; assay type: in vivo, C57BL/6 mice; details: 100 μg/dose, vs untreated infected mice
Experimental: as §1
The Lysozyme assay was performed as per manufacturer's instructions. Briefly, experimental samples were first diluted in 1× reaction buffer. A volume of 50 μl was used for each reaction. Then, 50 μl of the 50 μg/ml DQ lysozyme substrate were added to each microplate well containing the experimental or the standard curve samples. The reaction mix was then incubated at 37° C. for 30 min protected from light. The fluorescence in each of the samples was measured at absorption maxima at ˜494 nm and fluorescence emission maxima at ˜518 nm.

bax = experiment: qRT-PCR of bax transcript in lungs; assay type: in vivo, C57BL/6 mice; details: 100 μg/dose
Experimental: as §2, §3

nos2 [4] = experiment: NOS2 activity in lung homogenates (Griess reaction); assay type: in vivo, C57BL/6 mice; details: 100 μg/dose, vs untreated infected mice
Experimental: as §1
For the Griess reaction, reagents were acclimated at room temperature for 20 min prior to the assay. Thereafter, the samples were centrifuged at 1200 rpm for 2 min and the Griess reaction was performed following the manufacturer's instructions. Briefly, samples and prepared standards were diluted following the manufacturer's instructions with distilled sterile water in a 96 well plate. 20 μl of Griess reaction were added to each reaction well. Samples and standards were incubated for 30 minutes in the dark. Thereafter, samples were read using a Biotech Synergy 2 Multi-Mode Micro Plate Reader [U5] spectrophotometer at 546 nm.

atg5 = experiment: qRT-PCR of atg5 transcript in lungs; assay type: in vivo, C57BL/6 mice; details: 100 μg/dose
Experimental: as §2, §3

Il-10 [5] = test system: Il-10; set-up: species or system C57BL/6 mice; details: mouse, in vivo
stat3 = test system: stat3; set-up: species or system C57BL/6 mice; details: mouse, in vivo
Il-10 [6] = experiment: Cytometric bead array for IL-10 in lung homogenates; set-up: species or system C57BL/6 mice; details: mouse, in vivo
TNFα = experiment: Cytometric bead array for TNFα in lung homogenates; assay type: in vivo, C57BL/6 mice; details: CBA, 100 μg/dose, vs control mice
bcl-2 [7] = experiment: qRT-PCR of bcl-2 transcript in lungs; assay type: in vivo, C57BL/6 mice; details: 100 μg/dose
Experimental: as §2, §3

arg1 [8] = experiment: Arginase activity in lung homogenates; assay type: in vivo, C57BL/6 mice; details: 100 μg/dose, vs untreated infected mice
Experimental: as §1
The level of arginase activity in each lung homogenate was performed using the Quanti-Chrom Arginase Assay Kit (Bio Assay Systems, Hayward, Calif.). Briefly, protein concentration was normalized to 100 μg/ml. As a control, an aliquot of normalized protein was heat-inactivated at 90° C. for 10 min. 40 μl of untreated or heat-inactivated sample was incubated at 37° C. for 60 min with 10 μl of 5× reagent. Thereafter, the reaction was processed as recommended by the manufacturer and analyzed in a plate reader (Bio-Rad, Hercules, Calif.) at an absorbance of 430 nm. The absorbance of the heat-inactivated sample was subtracted from the respective untreated sample and then compared to urea standards. Activity of the arginase was reported in mU/mg of protein.

pSTAT3 (pY705) = experiment: ELISA for pSTAT3 in lung homogenates; assay type: in vivo, C57BL/6 mice; details: after two weeks of treatment (100 μg/dose), vs untreated infected mice
Experimental: Lung homogenates were screened for pSTAT3 (pY705 (tyrosine 705)) by ELISA following manufacturer's recommendations (Life Technologies). Briefly, the lung homogenates were re-suspended in the cell extraction buffer and incubated during 30 minutes on ice with intermittent vortexing followed by pelleting of the cell debris. Supernatants from each sample were collected and screened for their content of STAT3 (pY705). Standards were prepared using purified recombinant phosphorylated STAT3 protein. Thereafter, 100 μl of standards and diluted samples or control aliquots were distributed into microtiter wells and were incubated in the wells pre-coated with anti-pSTAT3 antibody. The reactions were developed using the detection anti-pSTAT3 antibody followed by 30 minutes incubation at RT with anti-rabbit IgG HRP. The reactions were visualized by incubation with a chromogenic substrate of HRP during 30 minutes at room temperature. The reactions were stopped with 100 μl of stop solution added to each well. Absorbance for each well was read at 450 nm.

IL-12p40 = experiment: Cytometric bead array for IL-12p40 in lung homogenates; assay type: in vivo, C57BL/6 mice; details: CBA, 100 μg/dose, vs control mice
[9] = test system: granuloma lesions in the lungs; experiment: Lung histopathology (H&E); set-up: species or system C57BL/6 mice; details: mouse, in vivo
bcl-2 [10] = experiment: ELISA for Bcl-2 protein in lung homogenates; assay type: in vivo, C57BL/6 mice; details: 100 μg/dose, vs untreated infected mice
Excerpt: as §3

[11] = mouse, in vivo
pSTAT3 = experiment: Immunohistochemistry for pSTAT3 in lung tissue sections; set-up: species or system C57BL/6 mice; details: mouse, in vivo
IL-6 = experiment: Cytometric bead array for IL-6 in lung homogenates; assay type: in vivo, C57BL/6 mice; details: CBA, 100 μg/dose, vs control mice
[12] = test system: Mycobacterium tuberculosis (Erdman strain); details: in vivo; remark: listed apart in the source
[13] = RT-PCR, lungs, 100 μg/dose, vs control mice

Row | Substance | NADPH activity (pyridine nucleotide) (NADPH) | expression of beclin-1 transcript (in words) (beclin-1) | change of pulmonary CFU (in words) [2] | level of IFNγ expression in the lungs (IFNγ) | lysozyme activity (DQ substrate) (lysozyme) | expression of bax transcript (in words) (bax) | NOS2 activity (concentration of NO) (nos2 [4]) | expression of atg5 transcript (in words) (atg5) | pulmonary expression of il-10 transcript (Il-10 [5]) | pulmonary expression of stat3 transcript (stat3) | level of IL-10 in lung homogenates (Il-10 [6]) | level of TNFα in the lungs (TNFα) | expression of bcl-2 transcript (in words) (bcl-2 [7]) | Arg1 activity (arg1 [8]) | level of pSTAT3 in lung homogenates (pSTAT3 (pY705)) | expression level of IL-12p40 in the lungs (IL-12p40) | mRNA nos2 expression (in words) (nos2 [1]) | reduction of pulmonary bacterial load [2] | histopathology of H&E stained lung sections [9] | mRNA arg1 expression (in words) (arg1 [3]) | also measured
1 | Ac-EETQLSPKTSGFGSDTSGHLK-E-Pal (Ac-[dE][dE][dT][dQ][dL][dS][dP][dK][dT][dS]G[dF]G[dS][dD][dT][dS]G[dH][dL][dK](Palmitoyl); not fully specified; also: name K-E-Pal / C-terminal Glu-palmitoyl: Glu between Lys and palmitoyl?) [IL10R1-14] | lower or no increase | reduced expression | slight increase; also recorded: only the group of mice receiving the peptide inhibitor ST3-H2A2 had reduced the pulmonary CFU | increased and up | lower or no increase | reduced expression | lower or no increase | increased expression | no significant changes | no significant changes | no significant changes | reduced | reduced expression | increased | no significant changes | down | – | – | – | – | increase in nos2 transcript expression (nos2 [1]; [13]): 2 fold; increase in arg1 transcript expression (arg1 [3]; [13]): 10 fold
2 | LDTRYLEQLHKLY [ST3-H2A2] | significantly elevated | – | – | decreased and down | significantly elevated | – | significantly elevated | – | increased levels of expression | no significant changes | little change | reduced | – | reduced or not changed | little change | increased and up | increased more significantly | 1.7 log10 CFU | increased numbers of clusters and highly packed lymphocytes | decreased expression | increase in expression of beclin-1 transcript (beclin-1): > 3 fold; reduction of pulmonary CFU [2]: 0.6 log10; level of Bcl-2 protein in lung homogenates (bcl-2 [10]): significantly increased; increase in expression of bax transcript (bax): > 3 fold; increase in expression of atg5 transcript (atg5): > 3 fold; adverse effects during treatment (body weight) [11]: mild weight loss; pSTAT3 staining by IHC in lung tissue sections (pSTAT3): reduced levels of pSTAT3 staining in the center of the granuloma lesions; increase in expression of bcl-2 transcript (bcl-2 [7]): > 3 fold; expression level of IL-6 in the lungs (IL-6): increased; reduction of splenic bacilli load [12]: 0.9 log10CFU
3 | ε-Pal-KLVTLPLISSLQSSE-NH2 (K(Palmitoyl)LVTLPLISSLQSSE-NH2; N-terminus assumed; SMILES CCCCCCCCCCCCCCCC(=O)NCCCC[C@H](N)C(=O)N[C@@H](CC(C)C)C(=O)N[C@H](C(=O)N[C@H](C(=O)N[C@@H](CC(C)C)C(=O)N1CCC[C@H]1C(=O)N[C@@H](CC(C)C)C(=O)N[C@H](C(=O)N[C@@H](CO)C(=O)N[C@@H](CO)C(=O)N[C@@H](CC(C)C)C(=O)N[C@@H](CCC(N)=O)C(=O)N[C@@H](CO)C(=O)N[C@@H](CO)C(=O)N[C@@H](CCC(=O)O)C(N)=O)[C@@H](C)CC)[C@@H](C)O)C(C)C) [IL10R1-7] | significantly elevated | reduced expression | only the group of mice receiving the peptide inhibitor ST3-H2A2 had reduced the pulmonary CFU | decreased and down | significantly elevated | reduced expression | significantly elevated | increased expression | lower levels | lower levels | lower levels | reduced and down | reduced expression | reduced or not changed | lower levels | decreased and up | reduction in transcript expression for nos2 and arg1 but not significantly for nos2 | 0.6 | increased numbers of clusters and highly packed lymphocytes | reduction | pSTAT3 staining by IHC in lung tissue sections (pSTAT3): reduced levels of pSTAT3 staining in the center of the granuloma lesions; expression level of IL-6 in the lungs (IL-6): decreased

Reference: patent US10512673B2, “Use of peptide-based inhibitors of the stat3-IL10 pathway for treating bacterial infection and granulomatous disease” (The United States of America, as Represented by the …, priority 2015, dated 2019)
